{
  "source": "patent US20230390401A1",
  "about": "“RAPIDLY RELEASED BIOORTHOGONAL CAGING GROUPS” (University of Utah Research Foundation, priority 2018, published 2023)",
  "key": {"[1]": {"experiment": "Stability in serum in the absence of Tz", "type": "in vitro ADME, human"}, "[2]": {"test_system": "A549 lung cancer cells", "experiment": "Cytotoxicity assay (CellTiter-Glo 2.0 viability)", "method": "A549 lung cancer cells (ATCC, USA) were maintained in a humidified CO2 (5%) incubator at 37° C. in RPMI (Thermo Fisher, USA) supplemented with 10% fetal bovine serum in the presence of 1% Penicillin-Streptomycin-Glutamine (Thermo Fisher, USA) and 0.2% Normocin (InvivoGen, USA).\nThe cells were plated in 96-well TC treated plates (PerkinElmer, USA) at a 6,000 cells/well density 24 h prior to the addition of the drugs. All drugs, prodrugs and PEG-DPTz in DMSO stock solution were serially diluted in pre-warmed culture medium at 37° C. For samples assessing the reaction-induced drug release, prodrugs were added to the cells first (100 μL final volume per well) in a series of final concentrations ranging from 0.005 to 10 μM followed by addition of PEG-DPTz (20, 40 and 80 μM).\nAfter 72 h incubation at 37° C., cell proliferation was assessed by a CellTiter-Glo©2.0 viability assay according to the manufacturer's instructions. After 15 min incubation at 25° C., the medium was gently measured with Envision 2104 Multilabel Reader (PerkinElmer, USA) to get the luminescent based on quantitation of the ATP present, an indicator of metabolically active cells. The proliferation assay was performed in quadruplet measurements (n=4). EC50 values were derived from the normalized cell growth and Growth/Sigmoidal formula were fitted and generated with Origin 8.0. […] The results are expressed as the mean±standard deviation (n=4)."}, "[3]": {"experiment": "Kinetics of Tz-induced release from ICPr/ICPrc groups in PBS:DMSO", "conditions": "for k1,elim, release of fluorophore from 3-oxopropyl intermediate: in PBS, after reaction with PEG-DPTz; for bimolecular rate constant k2: PEG-DPTz c=0.2 mM, excess probe c=2 mM, T=37° C., PBS:DMSO (9:1), pseudo-first order fit", "method": "(§1) Fitting the disappearance of PEG-DPTz (c=0.2 mM) absorbance in the presence of excess ICPr-O-NA or ICPrc-NH-NA (c=2 mM;T=37° C., PBS:DMSO (9:1)) to a pseudo-first order rate equation provided the bimolecular rate constants k2(ICPr-O-NA)=4.0±0.2 M^−1s^−1 and k2(ICPrc-NH-NA)=1.1±0.2 M^−1s^−1, respectively. Release of the fluorophores in PBS from the postulated 3-oxopropyl intermediate was delayed relative to the reaction of the ICPr/ICPrc-groups with PEG-DPTz (k1,elim(HO-NA)=1.6×10^−4 s^−1; k1,elim(H2N-NA)=5.00×10^−5 s^−1; FIG. 4B, right column) in agreement with studies of cargo release from such groups. The aldehyde intermediate was detectable by NMR in DMSO-d6:D2O (9:1). To our delight, fluorophore release in diluted human serum (T=37° C., PBS:serum (1:1)) reached completion in few minutes because serum albumin can catalyze the β-elimination reaction."}, "[4]": {"test_system": "zebrafish embryos", "experiment": "In vivo uncaging of resorufin fluorescence in zebrafish embryos implanted with Tz-PS beads", "conditions": "c=10 μM, t=8 h, Tz-PS implanted into yolk sacs"}, "[5]": {"experiment": "Fluorophore release (β-elimination) in diluted human serum", "conditions": "T=37° C., PBS:serum (1:1)", "method": "as §1"}, "[6]": {"test_system": "zebrafish embryos", "conditions": "medium c=0, 1, 10 μM, t=8 h", "method": "Zebrafish embryos were used as a model organism to evaluate the activity of uncaged payload molecules in vivo. […] For the fluorescence study, Tz-PSs were implanted into the yolk sacs of zebrafish embryos followed by incubation with ICPr-rsf (c=10 μM). […] Mexiletine is a voltage-gated sodium channel blocker known to induce cardiac arrhythmia, and which has been reported to decrease heart rate.\nUV-VIS photospectrometic kinetic measurements were performed on a microplate reader SpectramaX M5 (Molecular Device, USA) in 96-well plates or 1 mL quartz cuvette. Cell proliferation assays were performed on an Envision 2104 Multilabel Reader (PerkinElmer, USA). Zebrafish Imaging and Efficiency Test (Heart Rate Reduction) were performed with Zeiss SteREO Discovery.V8 microscope (Zeiss, Jena, Germany) fitted with a PentaFluor S 120 vertical illuminator and coupled with an Xcite Series 120PC light source."}, "[7]": {"conditions": "read-out: EC50 cytotoxicity, prodrug combined with PEG-DPTz, A549 cells, prodrug + excess PEG-DPTz (c=80 μM), 72 h"}},
  "note": "Read-outs that look alike come from different tables or passages of the source.",
  "data": [
    {"compound": "N-(methyl-PEG4)-4-(3-isocyanopropyl-carbamoyl)amino-1,8-naphthalimide [ICPrc-NH-NA]", "values": [
      {"measurement": "stability in serum", "setting": "[1]", "result": "completely stable in serum for at least three days"}
    ]},
    {"compound": "[C-]#[N+]CCCOC(=O)N1C2CN3C4=C(C(=O)C(N)=C(C)C4=O)C(COC(N)=O)C3(OC)C21", "note": "(centres unmarked) [ICPrc-mmC, N-(3-isocyanopropyl-1-carbamoyl)Mitomycin C]", "values": [
      {"measurement": "EC50", "setting": "[2]; [7]", "result": "0.244 ± 0.017", "unit": "µM"}
    ]},
    {"compound": "COc1cccc2c1C(=O)c1c(O)c3c(c(O)c1C2=O)C[C@@](O)(C(=O)CO)C[C@@H]3O[C@H]1C[C@H](N)[C@H](O)[C@H](C)O1", "note": "[dox, doxorubicin, reference compound]", "values": [
      {"measurement": "EC50", "setting": "[2]; Homo sapiens, A549, 72 h, read-out: EC50 cytotoxicity, free drug", "result": "0.144 ± 0.028", "unit": "µM"}
    ]},
    {"compound": "COCCOCCOCCOCCN1C(=O)c2cccc3c(O)ccc(c23)C1=O", "note": "[HO-NA, N-(methyl-PEG4)-4-hydroxy-1,8-naphthalimide]", "values": [
      {"measurement": "k1,elim, release of fluorophore from 3-oxopropyl intermediate", "setting": "[3]", "result": 0.00016, "unit": "s⁻¹"}
    ]},
    {"compound": "[C-]#[N+]CCCOc1ccc2nc3ccc(=O)cc-3oc2c1", "note": "[ICPr-rsf, 3-isocyanopropyl resorufin ether]", "values": [
      {"measurement": "fluorescence staining, fish with Tz-PS versus controls with unmodified beads", "setting": "[4]", "result": 5.2, "unit": "fold"}
    ]},
    {"compound": "COCCOCCOCCOCCN1C(=O)c2cccc3c(N)ccc(c23)C1=O", "note": "[Structure H2N-NA, N-(methyl-PEG4)-4-amino-1,8-naphthalimide]", "values": [
      {"measurement": "k1,elim, release of fluorophore from 3-oxopropyl intermediate", "setting": "[3]", "result": "5e-05", "unit": "s⁻¹"}
    ]},
    {"compound": "[C-]#[N+]CCCOC(=O)NC1CC(OC2CC(O)(C(=O)CO)Cc3c(O)c4c(c(O)c32)C(=O)c2c(OC)cccc2C4=O)OC(C)C1O", "note": "(centres unmarked) [ICPrc-dox, N-(3-isocyanopropyl-1-carbamoyl)doxorubicin]", "values": [
      {"measurement": "EC50", "setting": "[2]; [7]", "result": "0.165 ± 0.035", "unit": "µM"}
    ]},
    {"compound": "[C-]#[N+]CCCOC(=O)Nc1ccc2c3c(cccc13)C(=O)N(CCOCCOCCOCCOC)C2=O", "note": "[ICPrc-NH-NA]", "values": [
      {"measurement": "apparent first-order rate constant k1,elim in serum", "setting": "[5]", "result": 0.0016, "unit": "s⁻¹"},
      {"measurement": "bimolecular rate constant k2", "setting": "[3]", "result": "1.1 ± 0.2", "unit": "M⁻¹ s⁻¹"}
    ]},
    {"compound": "[C-]#[N+]CCCOc1ccc2c3c(cccc13)C(=O)N(CCOCCOCCOCCOC)C2=O", "note": "[ICPr-O-NA, N-(methyl-PEG4)-4-(3-isocyanopropyl-1-oxy)-1,8-naphthalimide]", "values": [
      {"measurement": "apparent first-order rate constant k1,elim in serum", "setting": "[5]", "result": 0.0042, "unit": "s⁻¹"},
      {"measurement": "stability in serum", "setting": "[1]", "result": "completely stable in serum for at least three days"},
      {"measurement": "bimolecular rate constant k2", "setting": "[3]", "result": "4.0 ± 0.2", "unit": "M⁻¹ s⁻¹"}
    ]},
    {"compound": "[C-]#[N+]CCCOC(=O)NC(C)COc1c(C)cccc1C", "note": "(centres unmarked) [ICPrc-mex, N-(3-isocyanopropyl-1-carbamoyl)mexiletine]", "values": [
      {"measurement": "heart rate in control fish bearing unmodified beads", "setting": "[6]", "result": "no changes were observed"},
      {"measurement": "heart rate in fish with implanted Tz-PS", "setting": "[6]; normalized to heart rate at t=0 h", "result": "dose-dependent decrease in heart rate"}
    ]}
  ]
}
